In PubChem BioAssay AID624041 (The Scripps Research Institute Molecular Screening Center, 2012):
Calls of active or inactive are those of the source. The rule behind the calls is not given here.

Tests used:
[1] = molecular target: Monoacylglycerol lipase ABHD6 (Mus musculus) (UniProt Q8R2Y0); experiment: mouse liver ABHD6 target engagement – competitive gel-based ABPP, fluorescence, in vivo study for DAGLb inhibitor project, late-stage follow-up (AID 624041); conditions: in vivo dosing
[2] = as above; conditions: in vivo dosing, anti-target, probe FP-Rh, stronger effect = higher value

Sequence of Monoacylglycerol lipase ABHD6 (Mus musculus) (Q8R2Y0 whole entry, looked up): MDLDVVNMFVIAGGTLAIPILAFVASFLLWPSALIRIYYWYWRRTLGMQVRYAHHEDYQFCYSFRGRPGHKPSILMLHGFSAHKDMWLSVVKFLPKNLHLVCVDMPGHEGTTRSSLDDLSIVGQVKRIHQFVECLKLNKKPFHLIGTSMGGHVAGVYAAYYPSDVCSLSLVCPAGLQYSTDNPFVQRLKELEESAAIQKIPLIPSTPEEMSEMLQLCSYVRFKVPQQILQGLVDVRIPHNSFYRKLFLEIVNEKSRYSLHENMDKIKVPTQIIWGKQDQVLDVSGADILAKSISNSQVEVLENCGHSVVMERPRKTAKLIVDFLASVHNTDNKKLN

**Q.** With `COc1ccc(-c2ccc(-c3cn(C(=O)N4CCCCC4c4ccccc4)nn3)cc2)cc1` (stereo not drawn) as the molecule, how does the inhibition ([1]; probe FP-Rh, stronger effect = higher value, dose or concentration not given here) read?
**A.** 95%

**Q.** And the inhibition ([1]; probe FP-Rh, inhibition at 5 mg/kg, stronger effect = higher value)?
**A.** 98%

**Q.** And the inhibition ([1]; probe HT-01, stronger effect = higher value, dose or concentration not given here)?
**A.** 90%

**Q.** And the inhibition ([1]; probe HT-01, inhibition at 5 mg/kg, stronger effect = higher value)?
**A.** 90%

**Q.** And the inhibition ([2]; 65 kDa SH, dose or concentration not given here)?
**A.** 70% (inactive)

**Q.** And the inhibition ([2]; 65 kDa SH, inhibition at 5 mg/kg)?
**A.** 5%

**Q.** What about the inhibition ([2]; 72 kDa SH, dose or concentration not given here) of the same molecule?
**A.** 80% (inactive)

**Q.** And the inhibition ([2]; 72 kDa SH, inhibition at 5 mg/kg)?
**A.** 20%
